From patent publication US7713960B2, “Inhibition of the Raf/Mek/P-Erk pathway for treating cancer” (University of South Florida, priority 2005, dated 2010)
Where “and” joins values, the source holds several entries; their conditions need not be identical. Identical values can stand only once. Counter-ions that a name gives are not always drawn.

Tests used:
[1] = test system: P-p38; experiment: P-p38 levels (Western blotting), MDA-MB-231; format: cell-based, human
[2] = test system: ACHN cells; experiment: Nude mouse xenograft model, ACHN (s.c.); format: in vivo, nude mice; conditions: i.p. 200 mpk/day
Text: (§1) Anti-tumor activity in nude mouse xenograft model—Female athymic nude (nu/nu) mice, 5-6 weeks old, were purchased from Charles River (Wilmington, Mass.) and allowed to acclimate in the animal facility for one week. After harvesting, A-549, SNB-19, ACHN, and HCT-116 cells were, resuspended in sterile PBS, and injected s.c. into the right and left flanks (10×10^6 cells per flank) of the mice as previously described (Sun et al., 2005). For MDA-MB-231, cells were harvested and resuspended in PBS (10×10^6 cells per 50 μl) and an equal volume of Matrigel (BD Biosciences, San Jose, Calif.). 100 μl of MDA-MB-231 cells in PBS/Matrigel were injected s.c. into the mammary fat pads between the 2nd and 3rd nipples on each side of the mice. Once the tumors reached approximately 200-300 mm^3 the mice were randomized and treated i.p. with 0.1 ml vehicle (PBS) or ARA-211. Each treatment group consisted of five mice (2 tumors per mouse, a total of 10 tumors). The tumor volumes were determined by measuring the length (l) and width (w) and calculating the volume (V=w^2l/2). Statistical significance between the control and treated animals was determined using a student's t test.

[3] = test system: HCT-116 cells; experiment: Apoptosis assay (Cell Death Detection ELISA), HCT-116; format: cell-based, human; conditions: 48 hours, two single values, dihydrochloride
Experimental: (§2) Apoptosis Assay—Apoptosis was analyzed using the Cell Death Detection ELISA (Roche, Indianapolis, Ind.) measuring cytoplasmic histone-associated mono- and oligonucleosome DNA fragments. Procedures were carried out according to the manufacturers protocol. Briefly, 1×10^5 cells were plated in 60 mm dishes and treated with various doses of ARA-211 or vehicle for 48 hours. Cells were lysed with the provided lysis buffer and lysate was incubated on the ELISA plate for 1 hour to capture the histone associated DNA indicative of apoptotic cells. Anti-DNA peroxidase conjugated antibody was added to detect the cleaved DNA and the microplate was washed and developed with ABTS substrate which was quantitated by microplate reader at 405 nm.

[4] = test system: A-549 cells; experiment: Apoptosis assay (Cell Death Detection ELISA), A-549; format: cell-based, human; conditions: 48 hours, two single values, dihydrochloride
Experimental: as §2

[5] = test system: P-Mek-1; experiment: P-Mek-1 levels (Western blotting), MDA-MB-231; format: cell-based, human
Experimental: (§3) Western Blotting—Treated cell samples were lysed in 30 mM HEPES, 10 mM NaCl, 5 mM MgCl2, 25 mM NaF, 1 mM EGTA, 1% Triton-X-100, 10% Glycerol, 2 mM Sodium orthovanidate, 10 μg/mL aprotinin, 10 μg/mL soybean trypsin inhibitor, 25 μg/mL leupeptin, 2 mM phenylmethylsulfonylfluoride (PMSF), 6.4 mg/mL p-nitrophenylphosphate for 30 minutes at 4° C., and proteins run on SDS-PAGE gels then transferred to nitrocellulose membranes. Membranes were blocked in either 5% milk in PBS, pH 7.4, containing 0.1% Tween-20 (PBS-T) or 1% BSA in TBS, pH 7.5, containing 0.1% Tween-20 (TBS-T). Phospho-STAT3 and phospho-AKT antibodies were diluted in 1% BSA in TBS-T while phospho-c-Raf, phospho-Mek, and phospho-p44/p42 MAPK antibodies (Cell Signaling) were diluted in 5% milk in PBS-T for either 1 hour at room temperature or overnight at 4° C. HRP-conjugated secondary antibodies (Jackson ImmunoResearch, West Grove, Pa.) were diluted in 5% milk in PBS-T or TBS-T at a 1:1000 dilution for one hour at room temperature. Western blots results were visualized using enhanced chemiluminescence. Stripping of the membranes for reblotting was done using stripping buffer (62.5 mM Tris pH 7.6, 2% SDS, 0.7% 2-mercaptoethanol) at 50° C. for 30 minutes.

[6] = test system: SF-539 cells; experiment: Anchorage-independent growth (soft agar assay), SF-539; format: cell-based, human
Experimental: Soft Agar Assay—Anchorage independent growth assays were performed as previously described (Lerner et al., 1997). Briefly, agar was diluted to 0.3% in propagation media containing 20,000 cells and either vehicle or ARA-211 and 1 ml of cell/agar mixture plated on top of 2 ml of a 0.6% layer of agar in medium alone. Cells were grown for three to four weeks at 37° C., 10% Co2 and were fed weekly with 100 μl per well of media/treatment. Quantification of colonies was done using a GS-700 scanning densitometer.

[7] = test system: P-Erk 1/2; experiment: P-Erk 1/2 levels (Western blotting), HCT-116; format: cell-based, human
Experimental: as §3

[8] = test system: MDA-MB-231 cells; experiment: Nude mouse xenograft model, MDA-MB-231 (mammary fat pads); format: in vivo, nude mice; conditions: MDA-MB-231 xenograft; i.p. 200 mpk/day
Text: as §1

[9] = molecular target: T1, Mek-1 (Homo sapiens, UniProt Q02750); experiment: In vitro kinase assay, Mek-1 immunoprecipitated from MDA-MB-231 cells; format: biochemical; conditions: immunoprecipitated kinase treated in vitro, 10 μM
T1 construct: c-Raf-1 and Mek-1, immunoprecipitated from MDA-MB-231 cells; endogenous in cells; host or cells: MDA-MB-231
T1 sequence (Q02750 whole entry): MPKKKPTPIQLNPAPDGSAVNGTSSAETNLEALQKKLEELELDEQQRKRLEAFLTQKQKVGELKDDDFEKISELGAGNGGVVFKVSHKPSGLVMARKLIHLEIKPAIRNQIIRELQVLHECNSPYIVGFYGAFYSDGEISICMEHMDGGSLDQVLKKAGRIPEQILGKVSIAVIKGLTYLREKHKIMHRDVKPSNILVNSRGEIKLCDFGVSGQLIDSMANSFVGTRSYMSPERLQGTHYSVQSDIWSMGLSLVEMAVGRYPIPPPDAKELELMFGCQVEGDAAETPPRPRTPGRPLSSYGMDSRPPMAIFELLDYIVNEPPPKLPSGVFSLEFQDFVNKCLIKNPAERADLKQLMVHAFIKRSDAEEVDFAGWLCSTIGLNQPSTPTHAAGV
Experimental: In Vitro Kinase Assays—MDA-MB-231 cells (2×10^6) were lysed for 30 minutes at 4° C. in RIPA-150 buffer (10 mM Tris pH 7.5, 150 mM NaCl, 10% glycerol, 5 mM EDTA, 1% Triton X-100, 0.1% SDS, 100 μM sodium orthovanadate, 1 μM aprotinin, 10 μM leupeptin, 10 μM antipain). Cell debris was pelleted at 13000 rpm for 15 minutes at 4° C. and the lysate was rocked overnight with 10 μg of either c-Raf or MEK antibodies (Santa Cruz Biotechnologies, Santa Cruz, Calif.). 25 μl of protein A/G PLUS agarose (Santa Cruz Biotechnology) was then added and rocked for 4 hours at 4° C. Samples were spun at 2000 rpm for 5 minutes to collect the agarose beads, which were then washed four times with lysis buffer. On the final wash each pellet was divided into 5. […]

[10] = test system: P-Erk 1/2; experiment: P-Erk 1/2 levels (Western blotting), A-549; format: cell-based, human
Experimental: as §3

[11] = test system: MDA-MB-231 cells; experiment: Apoptosis assay (Cell Death Detection ELISA), MDA-MB-231; format: cell-based, human; conditions: 48 hours
Experimental: as §2

CC(C)(C)NCC(O)c1ccc(O)c(CO)n1 (centres unmarked) [ARA-211, 2-hydroxymethyl-3-hydroxy-6-(1-hydroxy-2-tert-butylaminoethyl) pyridine, dihydrochloride]
P-p38 levels [1]: not | growth of tumors [2]: suppressed tumor growth | Apoptosis (% Induction) [3]: 0% and 1.2% | Apoptosis (% Induction) [4]: 3.1% and 2.2% | P-Mek-1 levels [5]: suppressed | Anchorage Independent Growth (% Inhibition) [6]: 94.4 ± 1.5% | P-Erk ½ (% Inhibition) [7]: 0% | growth of tumors [8]: caused tumor regression | in vitro Mek-1 kinase activity [9]: did not inhibit | P-Erk ½ (% Inhibition) [10]: 0% | Apoptosis (% Induction) [11]: 15 ± 4%
